Entries after “also recorded” stand apart in the source; their conditions may differ.
How the values were obtained:
[1] = tested on: frontal cortex; conditions: after administration; Society for Neuroscience meeting November 2000; cited from earlier work
[2] = tested on: C57B16 mice; experiment: Open field test; format: in vivo; conditions: 20 and 50 mg/kg i.p. once daily for 7 days prior to testing, FIG. 3
Text: The Open Field test is designed to measure behavioural responses such as locomotor activity, hyperactivity, and exploratory behaviors. Open Field is also used as a measure of anxiety. Rats and mice tend to avoid brightly illuminated, novel, open spaces, so the open field environment acts as an anxiogenic stimulus and allows for measurement of anxiety-induced locomotor activity and exploratory behaviours. Open field testing is a one trial test with little or no impact on the animal's subsequent behaviour. The apparatus for the Open Field test was a square (100 cm by 100 cm) made of white Perspex. Each rat is placed in a corner of the field and its behaviour recorded for five minutes. All activity is recorded by a video camera mounted above the open field and scored in real-time (or digitized and scored later) by the advanced motion-recognition software package Ethovision by Noldus, that detects and analyzes the movements of the rat or mouse. The total distance, average speed, rearing/elongation behaviour, and time spent in various parts of the field (such as, for example, the border areas vs. the open, middle area) is measured and analysed. Testing is carried out in a temperature, noise and light controlled room.
The Experimental protocol employed in the behavioural evaluation of Meparfynol is outlined in FIG. 7. Two separate cohorts of C57B16 mice were employed. […]

[3] = tested on: C57B16 mice; experiment: Novel object recognition (NOR) test; format: in vivo; conditions: FIG. 4
Text: This test is useful for evaluating the role of experimental manipulations on cognition. The recognition test is based on the natural tendency of rodents to investigate a novel object instead of a familiar one. The choice to explore the novel object reflects the use of learning and (recognition) memory processes. Novel Object Recognition (NOR) is based on the premise that rodents will explore a novel object more than a familiar one, but only if they remember the familiar one. This tendency is actually shared by humans, as looking time is often used to make inferences about an infant's memory in the absence of explicit, verbal recognition.
Before training the animals with objects, they are first allowed to acclimatise to the testing environment, a white Perspex box (30 cm by 20 cm) equipped with an overhead camera. After an acclimation session, the animals are ready for the training stage. […]
The amount of time that the rodents spends exploring each object can be calculated by hand or by using a computer program receiving input from the overhead camera. […]

[4] = tested on: C57B16 mice; experiment: Pre-pulse inhibition (PPI) of the startle response in mice; format: in vivo; conditions: 20 mg/kg i.p., FIG. 5A
Text: Prepulse inhibition is a procedure whereby a preceding stimulus attenuates the startle response. The reduced ability to filter out irrelevant auditory stimulation is a characteristic which is thought to contribute to certain manifestations of conditions including inattention, distractibility, and cognitive deficits. The test is quite useful for evaluating transgenic models of schizophrenia as well as to screen potential antipsychotic drugs.
An example of one way of testing for PPI: In the prepulse inhibition (PPI) procedure, the rodent is placed in a small chamber and exposed to a brief pulse of noise. […]
The main three parts of the procedure are prepulse, startle stimulus, and startle reflex. […] Startle response is measured in rodents using the so-called automated “startle chambers” or “stabilimeter chambers”, with detectors recording whole-body reaction. In humans, the movements of oculomotor muscles (“eye-blink reflex” or “eye-blink response” assessed using electromyographic recording of orbicularis oculi muscle and by oculography) could be used as a measure. […]
Mepfarynol was administered by the intraperitoneal route at the doses indicated and as per details outlined above. Values were analysed using a two way ANOVA and Student t-test and those with a p value<0.05 were accepted as significant and where appropriate are indicated with an asterisk.

[5] = tested on: rats reared in isolation; experiment: Pre-pulse inhibition (PPI) of the startle response in rats reared in isolation; format: in vivo; conditions: 20 mg/kg, p<0.05, two-way ANOVA, FIG. 5B
Text: This reduction or inhibition of startle is not observed in the isolated animals.
One of the most robust, non-invasive rodent models used for studies relating to schizophrenia is isolation rearing of rats (Weiss and Feldon, 2001; Fone and Porkess, 2008). […] PPI is used as an operational measure of sensorimotor gating and is known to be defective in schizophrenics (Swerdlow et al., 1994; Ludewig et al., 2002). […] Reduction or inhibition of startle is not observed in the isolated animals control.

[6] = tested on: C57B16 mice; experiment: Water maze spatial learning; format: in vivo; conditions: i.p. once daily prior to testing, FIG. 6
Protocol: The Morris water maze (MWM) is a test of spatial learning for rodents that relies on distal cues to navigate from start locations around the perimeter of an open swimming arena to locate a submerged escape platform. Spatial learning is assessed across repeated trials and reference memory is determined by preference for the platform area when the platform is absent.
The test apparatus consists of a large circular pool (1 m diameter, 80 cm high, temperature 26° C.) with a platform (11 cm diameter) submerged 1.5 cm below the surface. Both the pool and the platform were constructed of black polyvinyl plastic, which offered no intra-maze cues. The experimental room contained several extra-maze visual cues. During training the platform was hidden in the same quadrant 30 cm away from the edge of the maze. There were five trials, each of them beginning with the rat facing the wall of the maze in one of three different locations. The time taken for the rat to find the platform within a 90s period was recorded. Probe trials where the platform was removed from the maze and the time the animal spent in the target quadrant were also performed. […]
Finally, drugs inducing neurobehavioural profile are evaluated in the water maze spatial learning paradigm, a robust task of information acquisition and consolidation—a measure of cognitive action

[7] = tested on: receptors (cell lines that express only one type of receptor); experiment: Novascreen receptor affinity screen (competition with a reference ligand); format: binding; conditions: 1 μM Meparfynol, all top ranking receptors; FIG. 8C
Protocol: Analysis of receptor affinities was performed by Novascreen™ (www.novascreen.com) and those displacing >20% of the natural ligand are indicated by the filled boxes. Blood levels of Mepfarynol were determined by GC mass spectroscopy in separate samples taken from a cannulated jugular at increasing time intervals following a single intraperitoneal injection of the drug ([…]).
The higher the target inhibition value, the greater the affinity Meparfynol has for this particular receptor as it displaces a greater proportion of the reference ligand. This assay is an automated high throughput assay performed on cell lines that express only one type of receptor and was carried out by Novascreen (www.novascreen.com).

[8] = tested on: C57B16 mice; experiment: Neurobehavioural screening (modified SHIRPA protocol), neophobia; format: in vivo; conditions: chronic administration protocol, 1 dose/day prior to testing
Protocol: The Experimental protocol employed in the behavioural evaluation of Meparfynol is outlined in FIG. 7. Two separate cohorts of C57B16 mice were employed. Cohort 1 was used to evaluate the drug effect on prepulse inhibition, open-field and novel object recognition. Cohort 2 was used to evaluate drug effects on spatial learning. The behavioural tests were administered in sequence as per day number indicated in the bar. The drug was administered by the intraperitoneal route and on the day of training the drug was administered after the behavioural analysis. Meparfynol/UCD-1216 was administered at doses of 20 and 50 mg/kg. The compounds were administered once daily, via the intraperitoneal route, for 7 days prior to testing and the animals were drug-free at time of training.
A modified SHIRPA protocol was adopted in order to provide an in vivo drug profile. The SHIRPA protocol is used in both academic and industrial environments for an initial behavioural characterisation of potential psychopharmaceuticals. The first behavioural tier analysis of our modified screen comprised open-field (FIG. 3), novel object recognition (NOR; FIG. 4), and pre-pulse inhibition (PPI; FIGS. 5A and 5B) paradigms. These psycho-pharmacological tests are described in more detail below: […]

[9] = in vivo; cited from earlier work

SMILES: COc1ccc(NS(=O)(=O)c2sc3ccc(Cl)cc3c2C)cc1N1CCNCC1 [SB-271046]
- glutamate and aspartate levels in the frontal cortex [1]: significant increase
- noradrenaline, dopamine or 5-HT levels [1]: without affecting

SMILES: C#C[C@](C)(O)CC (stereo in doubt) [Meparfynol, 3-methylpent-1-yn-3-ol]
- effect in the open-field paradigm (locomotor activity) [2]: little effect
- working memory as measured by the NOR test (exploratory bias for the novel object) ([3]; 20 and 50 mg/kg i.p. once daily for 7 days prior to testing): modest enhancement
- novel object exploratory time ([3]; compared to the vehicle-treated controls): significantly reduced
- pre-pulse inhibition of startle response [4]: significantly enhances
- pre-pulse inhibition of startle response [5]: significantly enhances
- spatial learning in the water maze [6]: enhanced spatial learning; also recorded: significant pro-cognitive actions
- percent target inhibition (reference ligand prevented from binding) [7]: less than 20%
- neophobia (fear of anything new) [8]: reduced neophobia

SMILES: CC12CC3CC(C)(C1)CC(N)(C3)C2 [Memantine, 1-amino-3,5-dimethyl adamantane]
- administered dose excreted unchanged in urine [9]: 57-82%
